Drawing on patent US11130741B2 (Bioimics AB, priority 2016, dated 2021), this text covers MIC and IC50 for 31 compounds.

Converted amounts (≈) assume the structure as drawn. Where a name gives a salt, the structure may show the parent alone. Read-outs that look alike come from different tables or passages of the source.

In assay [1] the test system is Escherichia coli (ATCC25922). Put plainly: MIC, broth microdilution (CLSI), Escherichia coli ATCC25922. Background: Broth dilution looks for growth in wells or tubes with falling amounts of substance.
For assay [2], the system named is Staphylococcus aureus (ATCC25923). Briefly: MIC, broth microdilution (CLSI), Staphylococcus aureus ATCC25923.
Assay [3] concerns E. coli RNase P RNA, M1 RNA. Briefly: Inhibition of bacterial RNase P activity, IC50 determination (cleavage of pATSerUG by M1 RNA). The class given is biochemical. To be noted: NI = No inhibition.
Where [4] appears, read: ATCC25922, read-out: E. coli MIC, Table 15, NI = No inhibition.
Setting [5] is: ATCC25923, read-out: S. aureus ("Clinical") MIC.

For orientation: MIC means the lowest concentration that inhibits growth of the organism. What is called IC50 is the concentration that gives 50% inhibition. Low readings indicate greater potency in that assay, high ones weaker potency in that assay. With `FC(F)(F)c1cc(NC2CNC2)c2c(c1)Sc1ccccc1N2` [compound 193, N-(azetidin-3-yl)-3-(trifluoromethyl)-10H-phenothiazin-1-amine], the MIC in assay [1] (setting [4]) is 22 µg/mL (≈ 65.2 µM); in assay [2] (setting [5]), 5 µg/mL (≈ 14.8 µM). This compound also gave a concentration for half-maximal inhibition (IC50) in assay [3] of 180 µM.
In the case of `NCCNC1CCCC(C(=O)Nc2cc(C(F)(F)F)cc3c2Nc2ccccc2S3)C1` (stereo not drawn) [compound 163, 3-((2-aminoethyl)amino)-N-(3-(trifluoromethyl)-10H-phenothiazin-1-yl)cyclohexane-carboxamide], the MIC in assay [1] (setting [4]) and in assay [2] (setting [5]) was 14 µg/mL (≈ 31.1 µM) in each case. Further, inhibition in assay [3] was half-maximal at 72 µM (IC50).
With `NCC1CCCC(C(=O)Nc2cc(C(F)(F)F)cc3c2Nc2ccccc2S3)C1` (stereo not drawn) [compound 149, 3-(aminomethyl)-N-(3-(trifluoromethyl)-10H-phenothiazin-1-yl)cyclohexane-carboxamide], the values for the minimal inhibitory concentration (MIC) in assay [1] (setting [4]) and in assay [2] (setting [5]) were 54 µg/mL (≈ 128 µM) and 13 µg/mL (≈ 30.8 µM), respectively. This compound also showed a half-inhibitory concentration (IC50) in assay [3] of 15 µM.
The like results for `CN(C)CCCN1c2ccccc2Sc2cc(-c3ccc4[nH]cnc4c3)ccc21` [compound 117, 3-(3-(1H-benzo[d]imidazol-5-yl)-10H-phenothiazin-10-yl)-N,N-dimethylpropan-1-amine] were, in that order, above 100 µg/mL, 26 µg/mL (≈ 64.9 µM) and above 100 µM.
With `COc1ccc2[nH]c(-c3ccc4c(c3)Sc3ccccc3N4CCCN(C)C)cc2c1` [compound 144, 3-(3-(5-methoxy-1H-indol-2-yl)-10H-phenothiazin-10-yl)-N,N-dimethylpropan-1-amine], the minimal inhibitory concentration (MIC) is above 100 µg/mL in assay [1] (setting [4]) and 3 µg/mL (≈ 6.98 µM) in assay [2] (setting [5]). Besides, in assay [3], the IC50 was above 100 µM.
On to `NCCN1CCC(C(=O)Nc2cc(C(F)(F)F)cc3c2Nc2ccccc2S3)CC1` [compound 155, trifluoroacetate], for which the MIC was found to be 35 µg/mL in assay [1] (ATCC25922, read-out: E. coli MIC) and 35 µg/mL in assay [2] (ATCC25923, read-out: S. aureus ("Clinical") MIC, Table 15). Besides, in assay [3] (trifluoroacetate), inhibition was half-maximal at 53 µM (IC50).
`NCCN1CCCC(CNc2cc(C(F)(F)F)cc3c2Nc2ccccc2S3)C1` (stereo not drawn) [compound 220, N-((1-(2-aminoethyl)piperidin-3-yl)methyl)-3-(trifluoromethyl)-10H-phenothiazin-1-amine]: the minimum inhibitory concentration (MIC) in assay [1] (setting [4]) and in assay [2] (setting [5]) was 7 µg/mL (≈ 16.6 µM) in each case. The half-maximal inhibitory concentration (IC50) in assay [3] is above 100 µM.
In the case of `NCCN1CCCC(Nc2cc(C(F)(F)F)cc3c2Nc2ccccc2S3)CC1` (stereo not drawn) [compound 225, N-(1-(2-aminoethyl)azepan-4-yl)-3-(trifluoromethyl)-10H-phenothiazin-1-amine], the minimal inhibitory concentration (MIC) stood at 7 µg/mL (≈ 16.6 µM) in assay [1] (setting [4]) and 3 µg/mL (≈ 7.1 µM) in assay [2] (setting [5]). In addition, the IC50 in assay [3] is above 100 µM.
As for `NCCN1CCCC(C(=O)Nc2cc(C(F)(F)F)cc3c2Nc2ccccc2S3)C1` (stereo not drawn) [compound 203], the minimal inhibitory concentration (MIC) in assay [1] (setting [4]) and in assay [2] (setting [5]) was 14 µg/mL (≈ 32.1 µM) in each case. In assay [3], this compound yielded a half-inhibitory concentration (IC50) of 4 µM.
Regarding `O=C(Nc1cc(C(F)(F)F)cc2c1Nc1ccccc1S2)[C@@H]1CCCNC1` [compound 100, (R)-N-(3-(trifluoromethyl)-10H-phenothiazin-1-yl)piperidine-3-carboxamide], the figures for the MIC in assay [1] (setting [4]) and in assay [2] (setting [5]) were 32 µg/mL (≈ 81.3 µM) and 16 µg/mL (≈ 40.7 µM), respectively. In assay [3], the IC50 is above 100 µM.
The like results for `O=C(Nc1cc(C(F)(F)F)cc2c1Nc1ccccc1S2)C1CNC1` [compound 188, N-(3-(trifluoromethyl)-10H-phenothiazin-1-yl)azetidine-3-carboxamide] were, in that order, 23 µg/mL (≈ 62.9 µM), 12 µg/mL (≈ 32.8 µM) and above 100 µM.
The like results for `N#Cc1cc(NC2CCN(CCN)CC2)c2c(c1)Sc1ccccc1N2` [compound 215, 1-((1-(2-aminoethyl)piperidin-4-yl)amino)-10H-phenothiazine-3-carbonitrile] were, in that order, 47 µg/mL (≈ 129 µM), 23 µg/mL (≈ 62.9 µM) and above 100 µM.
The like results for `NC1CC(N)CC(C(=O)Nc2cc(C(F)(F)F)cc3c2Nc2ccccc2S3)C1` (stereo not drawn) [compound 170, 3,5-diamino-N-(3-(trifluoromethyl)-10H-phenothiazin-1-yl)cyclohexane-carboxamide] were, in that order, 7 µg/mL (≈ 16.6 µM), 3 µg/mL (≈ 7.1 µM) and 59 µM.
Consider `NCCNC(=S)Nc1cc(C(F)(F)F)cc2c1Nc1ccccc1S2` [compound 98, 1-(2-aminoethyl)-3-(3-(trifluoro-methyl)-10H-phenothiazin-1-yl)thiourea], for which the figures for the minimal inhibitory concentration (MIC) in assay [1] (setting [4]) and in assay [2] (setting [5]) were 16 µg/mL (≈ 41.6 µM) and 8 µg/mL (≈ 20.8 µM), respectively. The half-maximal inhibitory concentration (IC50) in assay [3] was above 100 µM.
The matching figures for `NC1CCC(Nc2cc(C(F)(F)F)cc3c2Nc2ccccc2S3)CC1` (stereo not drawn) [compound 180, N1-(3-(trifluoromethyl)-10H-phenothiazin-1-yl)cyclohexane-1,4-diamine]: 14 µg/mL (≈ 36.9 µM), 7 µg/mL (≈ 18.4 µM) and 87 µM.
With `NC[C@H]1CC[C@H](C(=O)Nc2cc(C(F)(F)F)cc3c2Nc2ccccc2S3)CC1` [compound 120, (1R,4R)-4-(aminomethyl)-N-(3-(trifluoromethyl)-10H-phenothiazin-1-yl)cyclohexane-carboxamide], the MIC was above 100 µg/mL in assay [1] (setting [4]) and 27 µg/mL (≈ 64.1 µM) in assay [2] (setting [5]). For the same compound, in assay [3], the half-maximal inhibitory concentration (IC50) came to 12 µM.
The matching figures for `CN(C)CCCN1c2ccc(Cl)cc2Sc2cccnc21` [compound 126, 3-(7-chloro-10H-benzo[b]pyrido [2,3-e][1,4]thiazin-10-yl)-N,N-dimethyl-propan-1-amine]: above 100 µg/mL, 82 µg/mL (≈ 256 µM) and above 100 µM.
For the compound `O=C(Nc1cc(C(F)(F)F)cc2c1Nc1ccccc1S2)C1CCCC(O)C1` (stereo not drawn) [compound 148, 3-hydroxy-N-(3-(trifluoromethyl)-10H-phenothiazin-1-yl)cyclohexane-carboxamide], the minimal inhibitory concentration (MIC) in assay [1] (setting [4]) was above 100 µg/mL; in assay [2] (setting [5]) it was 26 µg/mL (≈ 63.7 µM). Moreover, in assay [3], the IC50 was above 100 µM.
In the case of `NCCN1CCC(C(=O)Nc2cc(C(F)(F)F)cc3c2Nc2ccccc2S3)CC1` [compound 199], the MIC in assay [1] (setting [4]) and in assay [2] (setting [5]) was 28 µg/mL (≈ 64.1 µM) in each case. The concentration for half-maximal inhibition (IC50) in assay [3] is 65 µM.
Consider `CC(N)CC(=O)Nc1cc(C(F)(F)F)cc2c1N(CCCN(C)C)c1ccccc1S2` (stereo not drawn) [compound 90, 3-amino-N-(10-(3-(dimethylamino)propyl)-3-(trifluoromethyl)-10H-phenothiazin-1-yl)butanamide], for which the MIC was above 100 µg/mL in assay [1] (setting [4]) and 64 µg/mL (≈ 141 µM) in assay [2] (setting [5]). Also, the 50% inhibitory concentration (IC50) in assay [3] was above 100 µM.
As to `O=C(Nc1cc(C(F)(F)F)cc2c1Nc1ccccc1S2)C1CCCNC1` (stereo not drawn) [compound 91, N-(3-(trifluoromethyl)-10H-phenothiazin-1-yl)piperidine-3-carboxamide], the MIC in assay [1] (setting [4]) amounted to 32 µg/mL (≈ 81.3 µM); in assay [2] (setting [5]) it was 8 µg/mL (≈ 20.3 µM). The same compound showed an IC50 in assay [3] above 100 µM.
The like results for `FC(F)(F)c1cc(NC2CCCNC2)c2c(c1)Sc1ccccc1N2` (stereo not drawn) [compound 172, N-(piperidin-3-yl)-3-(trifluoromethyl)-10H-phenothiazin-1-amine] were, in that order, 23 µg/mL (≈ 62.9 µM), 6 µg/mL (≈ 16.4 µM) and 27 µM.
The matching figures for `NC[C@H]1CCC[C@H](CNc2cc(C(F)(F)F)cc3c2Nc2ccccc2S3)C1` [compound 189, N-(((1S,3S)-3-(aminomethyl)cyclohexyl)methyl)-3-(trifluoromethyl)-10H-phenothiazin-1-amine]: 52 µg/mL (≈ 128 µM), 3 µg/mL (≈ 7.36 µM) and above 100 µM.
For the compound `FC(F)(F)c1cc(NC2CCNCC2)cc2c1Nc1ccccc1S2` [compound 240, N-(piperidin-4-yl)-1-(trifluoromethyl)-10H-phenothiazin-3-amine], the MIC in assay [1] (setting [4]) was above 100 µg/mL; in assay [2] (setting [5]) it was 23 µg/mL (≈ 62.9 µM). Further, the IC50 in assay [3] was found to be 62 µM.
The matching figures for `CN(C)CCCN1c2ccccc2Sc2cc(C(F)(F)F)cc(NC(N)=S)c21` [compound 87, 1-(10-(3-(Dimethylamino)propyl)-3-(trifluoromethyl)-10H-phenothiazin-1-yl)thiourea]: above 100 µg/mL, 55 µg/mL (≈ 129 µM) and above 100 µM.
For the compound `NCCN1CCC(Nc2cc(Cl)cc3c2Nc2ccccc2S3)CC1` [compound 214, N-(1-(2-aminoethyl)piperidin-4-yl)-3-chloro-10H-phenothiazin-1-amine], the values for the minimum inhibitory concentration (MIC) in assay [1] (setting [4]) and in assay [2] (setting [5]) were 24 µg/mL (≈ 64 µM) and 12 µg/mL (≈ 32 µM), respectively. The compound further came in with a half-inhibitory concentration (IC50) in assay [3] above 100 µM.
The matching figures for `NCCN1CCC(c2nc3cc(C(F)(F)F)cc4c3n2-c2ccccc2S4)CC1` [compound 239, 2-(4-(4-(Trifluoromethyl)imidazo[4,5,1-kl]phenothiazin-1-yl)piperidin-1-yl)ethanamine]: 13 µg/mL (≈ 31.1 µM), 7 µg/mL (≈ 16.7 µM) and 17 µM.
The matching figures for `O=C(CC1(O)CCC(F)(F)CC1)Nc1cc(C(F)(F)F)cc2c1Nc1ccccc1S2` [compound 115, 2-(4,4-difluoro-1-hydroxycyclo-hexyl)-N-(3-(trifluoromethyl)-10H-phenothiazin-1-yl)acetamide]: above 100 µg/mL, 7 µg/mL (≈ 15.3 µM) and above 100 µM.
For the compound `CC(Nc1cc(C(F)(F)F)cc2c1Nc1ccccc1S2)C1CCCC(N)C1` (stereo not drawn) [compound 190, N-(1-(3-aminocyclohexyl)ethyl)-3-(trifluoromethyl)-10H-phenothiazin-1-amine], the MIC in assay [1] (setting [4]) worked out at 26 µg/mL (≈ 63.8 µM); in assay [2] (setting [5]) it was 3 µg/mL (≈ 7.36 µM). In assay [3], this compound registered a half-inhibitory concentration (IC50) of 82 µM.
The matching figures for `Nc1cccc(C(=O)Nc2cc(C(F)(F)F)cc3c2Nc2ccccc2S3)c1` [compound 134, 3-amino-N-(3-(trifluoromethyl)-10H-phenothiazin-1-yl)benzamide]: above 100 µg/mL, 6 µg/mL (≈ 14.9 µM) and above 100 µM.
The matching figures for `FC(F)(F)c1cc(NC[C@@H]2COCCN2)c2c(c1)Sc1ccccc1N2` [compound 159, (R)-N-(morpholin-3-ylmethyl)-3-(trifluoromethyl)-10H-phenothiazin-1-amine]: above 100 µg/mL, 12 µg/mL (≈ 31.5 µM) and above 100 µM.
